We go through 20 molecules from US20110065694A1 (priority 2009, published 2011).

One assay has as its system Sprague-Dawley rats. In words: Rat EEG assay. Conditions: for number of wake and non-REM sleep bouts / wake bout duration / wake promotion / time spent in REM sleep / time spent in non-REM sleep / time spent in wake: EEG; for normalized power in the 40-60 Hz range (EEG spectral analysis): EEG spectra; for wake promotion: first 6 hours post-dosing; for time spent in REM sleep / time spent in non-REM sleep / time spent in wake: relative to vehicle treated animals. In kind it is in vivo. As for the experimental part:
The rat EEG assay was designed to measure electrical signals from the brain as a proxy for in vivo biological activity at the H3 receptor.
Specifically, animals were housed in a temperature-controlled recording room under a 12 hour/12 hour light/dark cycle, with food and water available ad libitum. Eight male Sprague-Dawley rats were implanted with chronic recording devices for continuous recordings of electroencephalograph (EEG) via telemetry (Data Sciences Inc). A repeated measures design was employed in which each rat received eight separate dosings of the compound being tested with a minimum of 3 days between doses. […] EEG data were scored visually in 10 second epochs for wake, REM, and non-REM states. Scored data were analyzed and expressed as time spent in each state per hour. Cumulative time spent in wake, non-REM, and REM states were calculated for the 6 hour recording period. To determine whether any of the pharmacological treatments affected the consolidation of behavioral states, the duration and number of bouts for each state were calculated in hourly bins. A “bout” consisted of a minimum of two consecutive 10-second epochs of a given state and ended with any single state change epoch. The EEG spectra during wake and non-REM sleep were analyzed offline with a fast Fourier transform algorithm (NeuroScore software, Data Sciences Inc) on all epochs without a visually detectable artifact. Wake EEG spectra were analyzed in 1 Hz bins. Data were analyzed using two-way repeated-measures ANOVA.
For both compounds, there was an increase in the time spent in wake, a decrease in the time spent in non-REM sleep, and no change in the time spent in REM sleep relative to vehicle treated animals.

Assay [1] addresses human histamine H3 receptor (Homo sapiens, UniProt Q9Y5N1). In words: H3 GTPγS assay (SPA method), histamine H3 in vitro assay. It is filed as biochemical. As for the experimental part:
Briefly, cells expressing the human histamine H3 receptor were homogenized in 15 mM Tris-HCl pH 7.5, 2 mM MgCl2, 0.3 mM EDTA, and 1 mM EGTA. […] Membranes were frozen in liquid nitrogen until use. On the day of the assay, membranes were thawed and diluted in assay buffer (20 mM HEPES pH 7.4, 100 mM NaCl, 10 μg/ml saponin, 1 mM MgCl2) to give 500 μg/ml and mixed (v/v) with GDP in assay buffer for a final GDP concentration of 10 μM and incubated on ice for at least […]. PVT-WGA beads (Amersham, RPNQ001) were diluted in assay buffer at 50 mg/mL and mixed with GTPγ[^35S] (Amersham, SJ1308) diluted in assay buffer to give ˜25,000 dpm/10 μL and mixed vol/vol just before the start of the reaction.
For antagonists testing, 10 μL of a reference agonist ([…]) instead of 10 μL buffer was added at a concentration corresponding to the EC80 (30 nM).
The compounds provided herein were tested in the histamine H3 in vitro assay. In one embodiment, the respective HCl salts of the compounds provided herein were prepared using standard chemical procedures and tested in the histamine H3 in vitro assay.

The target in another assay is T1, H3 receptor (Rattus norvegicus, UniProt Q9QYN8).
T1 construct: membranes to be tested were prepared from brain frontal cortex membranes by homogenization; from tissue; host or cells: frontal cortex of adult male Sprague-Dawley rats
In words: Rat H3 ex vivo receptor occupancy assay. Conditions: dose giving 50% H3 receptor occupancy; ex vivo binding of [3H] R-α-methylhistamine in rat frontal cortical membranes. As for the experimental part:
This assay was designed to measure occupancy of H3 receptors by compounds provided herein by measuring the competition of binding to the H3 receptor with a radiolabeled ligand known to bind to the H3 receptor. More specifically, receptor occupancy was determined by ex vivo binding studies in rat cortical membranes.
Adult male Sprague-Dawley rats were treated with vehicle or compound at four different dose levels. After an appropriate pre-treatment time (typically 30 min to 1 hr), membranes to be tested were prepared from brain frontal cortex membranes by homogenization in ice-cold assay buffer. Frontal cortical membranes (400 μL containing an equivalent of 5 mg wet weight of tissue/tube) were incubated with 50 µL of [^3H] R-α-methylhistamine (final concentration 2 nM) and either 50 μL of buffer (total binding) or 50 μL of imetit (10 μM; non-specific binding) for 30 min at 25° C. in triplicates. Membrane bound radioactivity was recovered by filtration under vacuum through Skatron 11731 filters, pre-soaked in 0.5% PEI. Filters were rapidly washed with ice-cold 50 mM Tris buffer (wash setting 9,9,0) and radioactivity was determined by liquid scintillation counting (1 mL Packard MV Gold Scintillator). The amount of radioactivity in the membranes at the different doses was used generate a dose response curve and to calculate the ED50 (the dose that results in 50% receptor occupancy).
ED50 is the amount of drug at which 50% of the H3 receptors are occupied by the drug as measured by the amount of radioactivity measured at that dose relative to that measured when no drug (or vehicle) was administered.

[2] abbreviates: membranes of cells expressing human H3, GTPγ[35S] SPA, antagonist testing with reference agonist at EC80 (30 nM), in one embodiment HCl salts tested, read-out: Potency (functional potency as indicated by IC50).

Like-named read-outs stand apart in the source and are kept apart here.

Chain of human histamine H3 receptor (Q9Y5N1 whole entry): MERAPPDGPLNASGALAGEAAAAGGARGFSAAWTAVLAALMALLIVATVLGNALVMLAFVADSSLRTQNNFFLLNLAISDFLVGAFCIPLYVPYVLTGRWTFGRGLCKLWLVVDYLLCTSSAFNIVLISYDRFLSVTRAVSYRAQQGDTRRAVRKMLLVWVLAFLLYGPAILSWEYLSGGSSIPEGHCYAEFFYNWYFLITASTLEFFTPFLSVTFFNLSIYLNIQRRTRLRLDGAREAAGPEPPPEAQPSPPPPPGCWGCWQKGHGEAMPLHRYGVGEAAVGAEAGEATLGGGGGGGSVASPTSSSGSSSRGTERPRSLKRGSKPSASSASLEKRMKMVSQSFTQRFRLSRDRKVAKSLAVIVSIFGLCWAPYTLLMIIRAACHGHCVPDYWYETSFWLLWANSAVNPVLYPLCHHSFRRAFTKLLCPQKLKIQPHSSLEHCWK
T1 sequence (Q9QYN8 whole entry): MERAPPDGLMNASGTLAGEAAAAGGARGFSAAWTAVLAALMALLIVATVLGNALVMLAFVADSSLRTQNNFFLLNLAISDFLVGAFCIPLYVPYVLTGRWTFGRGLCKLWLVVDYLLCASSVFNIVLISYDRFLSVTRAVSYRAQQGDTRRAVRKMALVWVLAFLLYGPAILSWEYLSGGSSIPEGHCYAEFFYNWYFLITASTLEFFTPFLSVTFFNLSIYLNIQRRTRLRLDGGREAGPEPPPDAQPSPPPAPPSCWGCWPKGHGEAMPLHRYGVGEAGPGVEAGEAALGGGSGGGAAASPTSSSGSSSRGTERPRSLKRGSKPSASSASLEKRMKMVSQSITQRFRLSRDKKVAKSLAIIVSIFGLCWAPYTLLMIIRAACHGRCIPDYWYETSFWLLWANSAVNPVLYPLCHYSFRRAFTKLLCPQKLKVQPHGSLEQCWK

The IC50 is the midpoint of a concentration-inhibition curve. The term ED50 denotes the dose that gives a 50% effect, or the effect in half of the subjects. High values mean weaker potency, low ones greater potency. With `c1cn2cc(-c3ccc4c(c3)nc3n4CCN4CCCC[C@@H]4C3)ccc2n1` (single isomer, unassigned) [Compound 48], in the assay on Sprague-Dawley rats, the “number of wake and non-REM sleep bouts” value is “decrease”; the wake bout duration result is on record as “increase”; the “normalized power in the 40-60 Hz range (EEG spectral analysis)” value was “increase”; the wake promotion entry is reported as “wake promoting”. Moreover, in the assay on Sprague-Dawley rats, the “time spent in REM sleep” value is given as “no change”, the “time spent in non-REM sleep” value is given as “decrease” and the “time spent in wake” value is “increase”. Besides, the half-maximal inhibitory concentration (IC50) in assay [1] (setting [2]) is less than 10 nM. On H3 receptor, the ED50 was no more than 1 mg/kg.

As for `c1ccc2c(c1)CCN(Cc1ccc3c(c1)nc1n3CCN3CCCC[C@@H]3C1)C2` (single isomer, unassigned) [Compound 64], in assay [1] (setting [2]), the IC50 is less than 10 nM. At H3 receptor, this molecule returned an ED50 of no less than 1 mg/kg.

As to `c1cn2cc(-c3ccc4c(c3)nc3n4CCCN(C4CCC4)CC3)ccc2n1` [Compound 59, 3-cyclobutyl-10-(imidazo[1,2-a]pyridin-6-yl)-1,2,3,4,5,6-hexahydrobenzo[4,5]imidazo[1,2-a][1,5]diazocine], in the assay with Sprague-Dawley rats, the “number of wake and non-REM sleep bouts” value is given as “decrease”; the wake bout duration result is recorded as “increase”; the “normalized power in the 40-60 Hz range (EEG spectral analysis)” value is listed as “increase”; the wake promotion entry is “wake promoting”. For the same molecule, in the assay on Sprague-Dawley rats, the “time spent in REM sleep” value is reported as “no change”, the “time spent in non-REM sleep” value is recorded as “decrease” and the “time spent in wake” value is listed as “increase”. Also, the IC50 in assay [1] (setting [2]) is less than 10 nM. This molecule also had an ED50 on H3 receptor of no more than 1 mg/kg.

Regarding `c1ccc2c(c1)ncn2-c1ccc2c(c1)nc1n2CC2CCC(C1)N2C1CCC1` (stereo not drawn) [Compound 61, 3-(1H-benzo[d]imidazol-1-yl)-13-cyclobutyl-6,7,8,9,10,11-hexahydro-7,10-epiminobenzo[4,5]imidazo[1,2-a]azocine], the IC50 in assay [1] (setting [2]) is less than 100 nM.

Turning to `c1cc2c(cc1CN1CCOCC1)nc1n2CC2CCC(C1)N2C1CCC1` (stereo not drawn) [Compound 62, 4-((13-cyclobutyl-6,7,8,9,10,11-hexahydro-7,10-epiminobenzo[4,5]imidazo[1,2-a]azocin-3-yl)methyl)morpholine], in assay [1] (setting [2]), the IC50 was less than 100 nM.

With `c1ccc2c(c1)CCN(Cc1ccc3c(c1)nc1n3CCN3CCCC[C@H]3C1)C2` [Compound 65, (S)-11-((3,4-dihydroisoquinolin-2(1H)-yl)methyl)-1,2,3,4,6,7,14,14a-octahydrobenzo[4,5]imidazo[1,2-d]pyrido[2,1-g][1,4]diazepine], the IC50 in assay [1] (setting [2]) was less than 100 nM.

As to `N#Cc1ccc(-c2ccc3c(c2)nc2n3CCCN3CCCCC3C2)cc1` (stereo not drawn) [Compound 66, 4-(2,3,4,6,7,8,15,15a-octahydro-1H-benzo[4,5]imidazo[1,2-a]pyrido[2,1-d][1,5]diazocin-12-yl)benzonitrile], in assay [1] (setting [2]), the IC50 was less than 10 nM.

`c1cn2cc(-c3ccc4c(c3)nc3n4CCCN4CCCCC4C3)ccc2n1` (stereo not drawn) [Compound 67, 12-(imidazo[1,2-a]pyridin-6-yl)-2,3,4,6,7,8,15,15a-octahydro-1H-benzo[4,5]imidazo[1,2-a]pyrido[2,1-d][1,5]diazocine]: in assay [1] (setting [2]), the IC50 is less than 10 nM.

For `c1cc2c(cc1CN1CCOCC1)nc1n2CCCN2CCCCC2C1` (stereo not drawn) [Compound 68, 4-((2,3,4,6,7,8,15,15a-octahydro-1H-benzo[4,5]imidazo[1,2-a]pyrido[2,1-d][1,5]diazocin-12-yl)methyl)morpholine], in assay [1] (setting [2]), the IC50 was less than 100 nM.

For `c1ccc2c(c1)CCN(Cc1ccc3c(c1)nc1n3CCCN3CCCCC3C1)C2` (stereo not drawn) [Compound 69], the IC50 in assay [1] (setting [2]) was less than 100 nM.

Turning to `Brc1ccc2c(c1)nc1n2CCN2CCCC2C1` (stereo not drawn) [Compound 72, 10-bromo-2,3,5,6,13,13a-hexahydro-1H-benzo[4,5]imidazo[1,2-d]pyrrolo[2,1-g][1,4]diazepine], in assay [1], the IC50 is less than 100 nM.

On to `N#Cc1ccc(-c2ccc3c(c2)nc2n3CCN3CCCC3C2)cc1` (stereo not drawn) [Compound 73, 4-(2,3,5,6,13,13a-hexahydro-1H-benzo[4,5]imidazo[1,2-d]pyrrolo[2,1-g][1,4]diazepin-10-yl)benzonitrile], for which the IC50 in assay [1] (setting [2]) was less than 10 nM.

Consider `c1cn2cc(-c3ccc4c(c3)nc3n4CCN4CCCC4C3)ccc2n1` (stereo not drawn) [Compound 74, 10-(imidazo[1,2-a]pyridin-6-yl)-2,3,5,6,13,13a-hexahydro-1H-benzo[4,5]imidazo[1,2-d]pyrrolo[2,1-g][1,4]diazepine], for which the IC50 in assay [1] (setting [2]) was less than 10 nM.

Turning to `c1cc2c(cc1CN1CCOCC1)nc1n2CCN2CCCC2C1` (stereo not drawn) [Compound 75, 4-((2,3,5,6,13,13a-hexahydro-1H-benzo[4,5]imidazo[,2-d]pyrrolo[2,1-g][1,4]diazepin-10-yl)methyl)morpholine], the half-maximal inhibitory concentration (IC50) in assay [1] (setting [2]) was less than 10 nM.

With `c1ccc2c(c1)CCN(Cc1ccc3c(c1)nc1n3CCN3CCCC3C1)C2` (stereo not drawn) [Compound 76, 10-((3,4-dihydroisoquinolin-2(1H)-yl)methyl)-2,3,5,6,13,13a-hexahydro-1H-benzo[4,5]imidazo[1,2-d]pyrrolo[2,1-g][1,4]diazepine], the IC50 in assay [1] (setting [2]) was less than 10 nM.

For `Brc1ccc2c(c1)nc1n2CCCN2CCCC2C1` (stereo not drawn) [Compound 79, 11-bromo-1,2,3,5,6,7,14,14a-octahydrobenzo[4,5]imidazo[1,2-a]pyrrolo[2,1-d][1,5]diazocine], the IC50 in assay [1] (setting [2]) was less than 100 nM.

Regarding `N#Cc1ccc(-c2ccc3c(c2)nc2n3CCCN3CCCC3C2)cc1` (stereo not drawn) [Compound 80, 4-(1,2,3,5,6,7,14,14a-octahydrobenzo[4,5]imidazo[1,2-a]pyrrolo[2,1-d][1,5]diazocin-11-yl)benzonitrile], in assay [1] (setting [2]), the IC50 was less than 10 nM.

For `c1cn2cc(-c3ccc4c(c3)nc3n4CCCN4CCCC4C3)ccc2n1` (stereo not drawn) [Compound 81, 11-(imidazo[1,2-a]pyridin-6-yl)-1,2,3,5,6,7,14,14a-octahydrobenzo[4,5]imidazo[1,2-a]pyrrolo[2,1-d][1,5]diazocine], the IC50 in assay [1] (setting [2]) was less than 10 nM.

For the molecule `c1cc2c(cc1CN1CCOCC1)nc1n2CCCN(C2CCC2)CC1` [Compound 84, 4-((3-cyclobutyl-1,2,3,4,5,6-hexahydrobenzo[4,5]imidazo[1,2-a][1,5]diazocin-10-yl)methyl)morpholine], in assay [1] (setting [2]), the IC50 is less than 10 nM. Also, on H3 receptor, the ED50 is no less than 1 mg/kg.

Regarding `c1ccc2c(c1)CCN(Cc1ccc3c(c1)nc1n3CCCN(C3CCC3)CC1)C2` [Compound 85, 3-cyclobutyl-10-((3,4-dihydroisoquinolin-2(1H)-yl)methyl)-1,2,3,4,5,6-hexahydrobenzo[4,5]imidazo[1,2-a][1,5]diazocine], the IC50 in assay [1] (setting [2]) is less than 10 nM. For the same molecule, the ED50 at H3 receptor was no more than 1 mg/kg.
